Experiments:
Type in all cases: in vivo
[1] = tested on: foxtail, giant (giant foxtail, Setaria faberii); experiment: Test A greenhouse herbicide test, pre- and postemergence
From the text: (§1) Seeds of plant species selected from barnyardgrass (Echinochloa crus-galli), kochia (Kochia scoparia), ragweed (common ragweed, Ambrosia elatior), ryegrass, Italian (Italian ryegrass, Lolium multiflorum), crabgrass, large (large crabgrass, Digitaria sanguinalis), foxtail, giant (giant foxtail, Setaria faberii), momingglory (Ipomoea spp.), pigweed (Amaranthus retroflexus), velvetleaf (Abutilon theophrasti), wheat (Triticum aestivum), and corn (Zea mays) were planted into a blend of loam soil and sand and treated preemergence with a directed soil spray using test chemicals formulated in a non-phytotoxic solvent mixture which included a surfactant.
(§2) At the same time, plants selected from these crop and weed species and also blackgrass (Alopecurus myosuroides), and galium (catchweed bedstraw, Galium aparine) were planted in pots containing the same blend of loam soil and sand and treated with postemergence applications of test chemicals formulated in the same manner. Plants ranged in height from 2 to 10 cm and were in the one- to two-leaf stage for the postemergence treatment. Treated plants and untreated controls were maintained in a greenhouse for approximately 10 d, after which time all treated plants were compared to untreated controls and visually evaluated for injury. Plant response ratings, summarized in Table A, are based on a 0 to 100 scale where 0 is no effect and 100 is complete control. A dash (-) response means no test result.

[2] = tested on: ryegrass, Italian (Italian ryegrass, Lolium multiflorum); experiment: as above
From the text: as §1, §2

[3] = tested on: pigweed (Amaranthus retroflexus); experiment: as above
From the text: as §1, §2

corn (Zea mays) = experiment: as above; conditions: Postemergence
From the text: as §1, §2

[4] = tested on: barnyardgrass (Echinochloa crus-galli); experiment: as above
From the text: as §1, §2

[5] = tested on: ragweed (common ragweed, Ambrosia elatior); experiment: as above
From the text: as §1, §2

kochia (Kochia scoparia) = experiment: as above
From the text: as §1, §2

[6] = tested on: wheat (Triticum aestivum); experiment: as above; conditions: Postemergence
From the text: as §1, §2

[7] = tested on: blackgrass (Alopecurus myosuroides); experiment: Test A greenhouse herbicide test, postemergence
In short: (§3)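 Visual injury score, 0 (no effect) to 100 (complete control), versus untreated controls roughly 10 d after postemergence spray; plants at one- to two-leaf stage, 2 to 10 cm tall, in loam soil and sand, kept in greenhouse.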

[8] = tested on: galium (catchweed bedstraw, Galium aparine); experiment: Test A greenhouse herbicide test, postemergence
In short: as §3

[9] = tested on: ducksalad (Heteranthera limosa); experiment: Test B flooded paddy test; conditions: 250 g ai/ha, Flood; visual rating on scale of 0 to 100 where 0 is no effect and 100 is complete control; 13 to 15 d after treatment
Protocol: (§4) Plant species in the flooded paddy test selected from rice (Oryza sativa), sedge, umbrella (small-flower umbrella sedge, Cyperus difformis), ducksalad (Heteranthera limosa), and barnyardgrass (Echinochloa crus-galli) were grown to the 2-leaf stage for testing. At time of treatment, test pots were flooded to 3 cm above the soil surface, treated by application of test compounds directly to the paddy water, and then maintained at that water depth for the duration of the test. Treated plants and controls were maintained in a greenhouse for 13 to 15 d, after which time all species were compared to controls and visually evaluated. Plant response ratings, summarized in Table B, are based on a scale of 0 to 100 where 0 is no effect and 100 is complete control. A dash (-) response means no test result.

[10] = tested on: sedge, umbrella (small-flower umbrella sedge, Cyperus difformis); experiment: Test B flooded paddy test; conditions: 250 g ai/ha, Flood; visual rating on scale of 0 to 100 where 0 is no effect and 100 is complete control; 13 to 15 d after treatment
Protocol: as §4

rice (Oryza sativa) = experiment: Test B flooded paddy test; conditions: 250 g ai/ha, Flood; visual rating on scale of 0 to 100 where 0 is no effect and 100 is complete control; 13 to 15 d after treatment
Protocol: as §4

[11] = tested on: barnyardgrass (Echinochloa crus-galli); experiment: Test B flooded paddy test; conditions: 250 g ai/ha, Flood; visual rating on scale of 0 to 100 where 0 is no effect and 100 is complete control; 13 to 15 d after treatment
Protocol: as §4

[12] = Postemergence, 125 g ai/ha, visual rating after approx. 10 d, 0 to 100 scale (0 no effect, 100 complete control)
[13] = Postemergence, 500 g ai/ha, 0 to 100 scale, 0 is no effect, 100 is complete control
[14] = Preemergence, 125 g ai/ha, 0 to 100 scale where 0 is no effect and 100 is complete control
[15] = Preemergence, 500 g ai/ha, 0 to 100 scale, 0 no effect, 100 complete control
[16] = 125 g ai/ha, visual rating after approx. 10 d, 0 to 100 scale (0 no effect, 100 complete control)
[17] = 500 g ai/ha, 0 to 100 scale, 0 is no effect, 100 is complete control
[18] = Postemergence, 125 g ai/ha, 0 to 100 scale, 0 no effect, 100 complete control
[19] = Postemergence, 500 g ai/ha, visual rating after approx. 10 d, 0 to 100 scale (0 no effect, 100 complete control)
[20] = Preemergence, 125 g ai/ha, visual injury rating, 0 to 100 scale (0 no effect, 100 complete control), approx. 10 d
[21] = Preemergence, 500 g ai/ha, 0 to 100 scale where 0 is no effect and 100 is complete control
[22] = 125 g ai/ha, 0 to 100 scale, 0 no effect, 100 complete control
[23] = 500 g ai/ha, visual rating after approx. 10 d, 0 to 100 scale (0 no effect, 100 complete control)

Cn1ncc(O)c(-c2ccc(F)c3ccccc23)c1=O [Compound 24]
50: Barnyardgrass plant response rating [4, 13] | Plant response rating, Kochia (kochia (Kochia scoparia); [15]) | Blackgrass plant response rating [7, 17]
70: Plant response rating, Ryegrass, Italian ([2]; Postemergence, 125 g ai/ha, 0 to 100 scale where 0 is no effect and 100 is complete control) | Plant response rating, Pigweed [3, 12] | Pigweed plant response rating [3, 14] | Plant response rating, Kochia (kochia (Kochia scoparia); [12]) | Wheat plant response rating [6, 17]
80: Plant response rating, Foxtail, Giant [1, 15] | Ryegrass, Italian plant response rating [2, 14] | Plant response rating, Ryegrass, Italian [2, 15] | Kochia plant response rating (kochia (Kochia scoparia); [13]) | Plant response rating, Galium [8, 16]
100: Galium plant response rating [8, 17]
10: Plant response rating, Foxtail, Giant [1, 12]
0: Plant response rating, Corn (corn (Zea mays); [16]) | Corn plant response rating (corn (Zea mays); [17]) | Ragweed plant response rating [5, 14] | Plant response rating, Ragweed [5, 15] | Plant response rating, Ducksalad [9] | Plant response rating, Sedge, Umbrella [10] | Plant response rating, Rice (rice (Oryza sativa)) | Plant response rating, Barnyardgrass [11]
30: Barnyardgrass plant response rating [4, 14] | Plant response rating, Ragweed [5, 12] | Kochia plant response rating (kochia (Kochia scoparia); [14]) | Plant response rating, Wheat ([6]; 125 g ai/ha, 0 to 100 scale where 0 is no effect and 100 is complete control) | Plant response rating, Blackgrass [7, 16]
40: Plant response rating, Barnyardgrass [4, 12]
60: Foxtail, Giant plant response rating [1, 13] | Foxtail, Giant plant response rating [1, 14] | Plant response rating, Barnyardgrass [4, 15] | Ragweed plant response rating [5, 13]
90: Ryegrass, Italian plant response rating [2, 13] | Pigweed plant response rating [3, 13] | Plant response rating, Pigweed [3, 15]

Cc1nn(C)c(=O)c(-c2ccc(Cl)c3ccccc23)c1OC(=O)C(F)(F)F [Compound 159]
40: Plant response rating, Corn (corn (Zea mays); [23]) | Plant response rating, Barnyardgrass [4, 18]
70: Plant response rating, Blackgrass [7, 22] | Plant response rating, Blackgrass [7, 23]
0: Plant response rating, Wheat [6, 22] | Plant response rating, Ducksalad [9] | Plant response rating, Rice (rice (Oryza sativa)) | Plant response rating, Barnyardgrass [11]
100: Plant response rating, Ryegrass, Italian [2, 18] | Plant response rating, Ryegrass, Italian [2, 19] | Plant response rating, Ryegrass, Italian [2, 20] | Plant response rating, Ryegrass, Italian [2, 21] | Plant response rating, Pigweed [3, 20] | Plant response rating, Pigweed [3, 21] | Plant response rating, Ragweed [5, 18] | Plant response rating, Ragweed [5, 19] | Plant response rating, Kochia (kochia (Kochia scoparia); [18]) | Plant response rating, Kochia (kochia (Kochia scoparia); [19]) | Plant response rating, Kochia (kochia (Kochia scoparia); [20]) | Plant response rating, Kochia (kochia (Kochia scoparia); [21]) | Plant response rating, Galium [8, 22] | Plant response rating, Galium [8, 23]
60: Plant response rating, Foxtail, Giant [1, 20] | Plant response rating, Pigweed [3, 18]
50: Plant response rating, Foxtail, Giant [1, 18] | Plant response rating, Barnyardgrass [4, 20] | Plant response rating, Sedge, Umbrella [10]
20: Plant response rating, Corn (corn (Zea mays); [22])
80: Plant response rating, Foxtail, Giant [1, 19] | Plant response rating, Foxtail, Giant [1, 21] | Plant response rating, Pigweed [3, 19] | Plant response rating, Barnyardgrass [4, 19] | Plant response rating, Barnyardgrass [4, 21] | Plant response rating, Ragweed [5, 20] | Plant response rating, Ragweed [5, 21]
30: Plant response rating, Wheat [6, 23]

CCC(=O)Oc1c(Br)nn(C)c(=O)c1-c1c(C)ccc2ccccc12 [Compound 156]
100: Plant response rating, Ryegrass, Italian [2, 19] | Plant response rating, Ryegrass, Italian [2, 21] | Plant response rating, Pigweed [3, 19] | Plant response rating, Pigweed [3, 20] | Plant response rating, Pigweed [3, 21] | Plant response rating, Barnyardgrass [4, 21] | Plant response rating, Ragweed [5, 19] | Plant response rating, Kochia (kochia (Kochia scoparia); [19]) | Plant response rating, Kochia (kochia (Kochia scoparia); [21]) | Plant response rating, Galium [8, 22] | Plant response rating, Galium [8, 23]
60: Plant response rating, Wheat [6, 23] | Plant response rating, Blackgrass [7, 22] | Plant response rating, Ducksalad [9]
90: Plant response rating, Foxtail, Giant [1, 18] | Plant response rating, Foxtail, Giant [1, 19] | Plant response rating, Foxtail, Giant [1, 21] | Plant response rating, Ryegrass, Italian [2, 18] | Plant response rating, Ryegrass, Italian [2, 20] | Plant response rating, Pigweed [3, 18] | Plant response rating, Barnyardgrass [4, 19] | Plant response rating, Ragweed [5, 18] | Plant response rating, Ragweed [5, 20] | Plant response rating, Ragweed [5, 21] | Plant response rating, Blackgrass [7, 23]
70: Plant response rating, Barnyardgrass [4, 18] | Plant response rating, Barnyardgrass [4, 20]
30: Plant response rating, Corn (corn (Zea mays); [23]) | Plant response rating, Wheat [6, 22]
0: Plant response rating, Corn (corn (Zea mays); [22]) | Plant response rating, Rice (rice (Oryza sativa)) | Plant response rating, Barnyardgrass [11]
80: Plant response rating, Foxtail, Giant [1, 20] | Plant response rating, Kochia (kochia (Kochia scoparia); [18])
50: Plant response rating, Kochia (kochia (Kochia scoparia); [20])
75: Plant response rating, Sedge, Umbrella [10]

Reference: patent publication US10597388B2, “Pyridazinone herbicides” (FMC CORPORATION, priority 2014, dated 2020)
